For orientation: IC50 means the concentration at which inhibition is half-maximal.

Experimental findings from patent US20140161897A1, “METHOD FOR TREATING CANCERS, SUCH AS MYELOMA AND BREAST CANCER, WITH A COMBINATION OF TBL-12 AND VELCADE” (priority 2012, published 2014) are described below.

The subject of the test is human myeloma cells (U266, MM1, KMS1, and APR1). Nature of the test: MTT cell survival of IL-6 or TNFα stimulated myeloma cells. The test is classed as cell-based. The following applies: U-266, with constant TBL-12 100 ug/ml, read-out: IC50 for Velcade, in combination with the TBL-12. The method, then:
Different human myeloma cells (U266, MM1, KMS1, and APR1), which are commercially available were cultured in standard 96 well plates using standard methods to exponential growth face. The cells were stimulated by either 1L-6 (5 ng/ml), or TNFα (5 ng/ml).
The cells were then contacted with a combination of a constant concentration of TBL-12 (100 ug/ml), either by itself, or with various concentration of Velcade (2.5, 5, 10, and 15 ng). Cells which received neither TBL-12 nor Velcade were used as a control. Cell survival was measured, using an MTT assay, at 24, 48, and 72 hours.

For `CC(C)C[C@H](NC(=O)[C@H](Cc1ccccc1)NC(=O)c1cnccn1)B(O)O` [Velcade, Bortezomib], the half-maximal inhibitory concentration (IC50) was around 5 ng/mL.
